Measurements taken from article PMC6514978, “Synthesis, Antibacterial Activities, Mode of Action and Acute Toxicity Studies of New Oxazolidinone-Fluoroquinolone Hybrids” (Molecules, 2019).
≈ marks a conversion by molar mass, not a printed value.

Legend:
[1] = system: S. epidermidis (10) clinical isolates; assay: Susceptibility of clinical isolates (MIC); format: cell-based, Staphylococcus epidermidis; conditions: for MIC50 / MIC90 / MIC: Staphylococcus epidermidis, S. epidermidis, 10 clinical isolates; for MIC50: read-out: MIC50; for MIC90: read-out: MIC90; for MIC: read-out: MIC Range
Experimental: (§1) Susceptibility testing of oxazolidinone-fluoroquinolone hybrids against various bacteria was performed by the broth microdilution method as outlined by the Clinical and Laboratory Standards Institute (CLSI). Three types of media, including cation-adjusted Mueller Hinton broth, Haemophilus Test Medium and cation-adjusted Mueller Hinton broth that contained 3%–5% lysed horse blood, were used to culture the corresponding bacteria. […] A final inoculum of 5 × 10^5 CFU/mL was used and plates were read after incubation for 16–24 h at 35 °C. […] Standard quality control strains (ATCC) were included throughout. Each determination was repeated in triplicate.

[2] = system: S. pneumoniae (13) clinical isolates; assay: Susceptibility of clinical isolates (MIC); format: cell-based, Streptococcus pneumoniae; conditions: for MIC50 / MIC90: Streptococcus pneumoniae; for MIC50: read-out: MIC50; for MIC90: read-out: MIC90
Experimental: as §1

[3] = system: H. parasuis (34) clinical isolates; assay: Susceptibility of clinical isolates (MIC); format: cell-based, Haemophilus parasuis; conditions: H. parasuis, 34 clinical isolates; for MIC50 / MIC90: Glaesserella parasuis; for MIC50: read-out: MIC50; for MIC90: read-out: MIC90
Experimental: as §1

[4] = system: LZD-resistant E. faecalis; assay: microbe, parasite or virus in culture; format: cell-based; conditions: Enterococcus faecalis
Experimental: (§2) 6 standard strains and 3 clinical isolates were used to the preliminary evaluation of in vitro antibacterial activities of oxazolidinone-fluoroquinolone hybrids.
as §1

[5] = system: S. suis (9) clinical isolates; assay: Susceptibility of clinical isolates (MIC); format: cell-based, Streptococcus suis; conditions: Streptococcus suis, S. suis, 9 clinical isolates; for MIC50: read-out: MIC50; for MIC90: read-out: MIC90; for MIC: read-out: MIC Range
Experimental: as §1

[6] = system: S. aureus (46) clinical isolates; assay: Susceptibility of clinical isolates (MIC); format: cell-based, Staphylococcus aureus; conditions: for MIC50 / MIC90 / MIC: Staphylococcus aureus, S. aureus, 46 clinical isolates; for MIC50: read-out: MIC50; for MIC90: read-out: MIC90; for MIC: read-out: MIC Range
Experimental: as §1

[7] = system: VAN and quinolone-resistant S. pneumoniae; assay: MIC against drug-resistant strain; format: cell-based; conditions: Streptococcus pneumoniae; S. pneumoniae, VAN and quinolone-resistant; read-out: MIC
Experimental: as §2, §1

[8] = system: LZD and quinolone-resistant E. faecium; assay: MIC against drug-resistant strain; format: cell-based; conditions: Enterococcus faecium; E. faecium, LZD and quinolone-resistant; read-out: MIC
Experimental: as §2, §1

[9] = system: MRSA; assay: MIC against drug-resistant strain; format: cell-based; conditions: Staphylococcus aureus, read-out: MIC
Experimental: as §2, §1

[10] = system: CIP-resistant S. aureus; assay: MIC against drug-resistant strain; format: cell-based; conditions: Staphylococcus aureus; S. aureus, CIP-resistant; read-out: MIC
Experimental: as §2, §1

[11] = system: CIP-resistant S. haemolyticus; assay: MIC against drug-resistant strain; format: cell-based; conditions: Staphylococcus haemolyticus; S. haemolyticus, CIP-resistant; read-out: MIC
Experimental: as §2, §1

[12] = system: VAN and quinolone-resistant E. faecium; assay: MIC against drug-resistant strain; format: cell-based; conditions: Enterococcus faecium; E. faecium, VAN and quinolone-resistant; read-out: MIC
Experimental: as §2, §1

[13] = system: E. faecium (47) clinical isolates; assay: Susceptibility of clinical isolates (MIC); format: cell-based, Enterococcus faecium; conditions: for MIC Range / MIC50 / MIC90: E. faecium, 47 clinical isolates; for MIC50 / MIC90: Enterococcus faecium; for MIC50: read-out: MIC50; for MIC90: read-out: MIC90
Experimental: as §1

[14] = system: MRSE; assay: MIC against drug-resistant strain; format: cell-based, S. epidermidis; conditions: Staphylococcus epidermidis, read-out: MIC
Experimental: as §2, §1

[15] = system: E. faecalis (72) clinical isolates; assay: Susceptibility of clinical isolates (MIC); format: cell-based, Enterococcus faecalis; conditions: for MIC Range / MIC50 / MIC90: E. faecalis, 72 clinical isolates; for MIC50 / MIC90: Enterococcus faecalis
Experimental: as §1

[16] = system: S. haemolyticus (32) clinical isolates; assay: Susceptibility of clinical isolates (MIC); format: cell-based, Staphylococcus haemolyticus; conditions: for MIC50 / MIC90 / MIC: Staphylococcus haemolyticus, S. haemolyticus, 32 clinical isolates; for MIC50: read-out: MIC50; for MIC90: read-out: MIC90; for MIC: read-out: MIC Range
Experimental: as §1

[17] = S. pneumoniae, 13 clinical isolates
[18] = S. epidermidis clinical isolates, CLSI criteria
[19] = S. pneumoniae clinical isolates, CLSI criteria
[20] = S. aureus clinical isolates, CLSI criteria
[21] = E. faecium clinical isolates, CLSI criteria
[22] = S. haemolyticus clinical isolates, CLSI criteria

CC1CCc2c(N3CCC(O)CC3)c(F)cc3c(=O)c(C(=O)O)cn1c23 (centres unmarked) [NDFX, nadifloxacin]
MIC50 [1]: 1 µg/mL (≈ 2.77 µM) | MIC90 [1]: 2 µg/mL (≈ 5.55 µM) | MIC [1]: 0.0625 to 2 µg/mL (≈ 0.173 to 5.55 µM) | MIC50 [2, 17]: 16 µg/mL (≈ 44.4 µM) | MIC90 [2, 17]: > 32 µg/mL | MIC50 [3]: ≤ 0.0625 µg/mL | MIC90 [3]: 1 µg/mL (≈ 2.77 µM) | MIC Range [3]: ≤0.0625 to 1 µg/mL | MIC [4]: 1 µg/mL (≈ 2.77 µM) | MIC50 [5]: ≤ 0.0625 µg/mL | MIC90 [5]: 2 µg/mL (≈ 5.55 µM) | MIC [5]: 0.0625 to 4 µg/mL (≈ 0.173 to 11.1 µM) | MIC50 [6]: 0.5 µg/mL (≈ 1.39 µM) | MIC90 [6]: 0.5 µg/mL (≈ 1.39 µM) | MIC [6]: 0.0625 to 2 µg/mL (≈ 0.173 to 5.55 µM) | MIC [7]: > 32 µg/mL | MIC [8]: 16 µg/mL (≈ 44.4 µM) | MIC [9]: ≤ 0.0625 µg/mL | MIC [10]: 0.5 µg/mL (≈ 1.39 µM) | MIC [11]: 4 µg/mL (≈ 11.1 µM) | MIC [12]: 32 µg/mL (≈ 88.8 µM) | MIC Range [13]: 0.5 to 16 µg/mL | MIC50 [13]: 2 µg/mL (≈ 5.55 µM) | MIC90 [13]: 8 µg/mL (≈ 22.2 µM) | MIC [14]: 0.125 µg/mL (≈ 0.347 µM) | MIC Range [15]: 0.125 to 2 µg/mL | MIC50 [15]: 0.25 µg/mL (≈ 0.694 µM) | MIC90 [15]: 1 µg/mL (≈ 2.77 µM) | MIC50 [16]: ≤ 0.0625 µg/mL | MIC90 [16]: 0.5 µg/mL (≈ 1.39 µM) | MIC [16]: 0.0625 to 4 µg/mL (≈ 0.173 to 11.1 µM)

CCN1CCN(c2cc3c(cc2F)c(=O)c(C(=O)O)cn3C2CC2)CC1 [ENR, enrofloxacin]
MIC50 [1]: 2 µg/mL (≈ 5.56 µM) | MIC90 [1]: 4 µg/mL (≈ 11.1 µM) | MIC [1]: 0.125 to 4 µg/mL (≈ 0.348 to 11.1 µM) | MIC50 [2, 17]: 32 µg/mL (≈ 89 µM) | MIC90 [2, 17]: > 32 µg/mL | MIC50 [3]: ≤ 0.0625 µg/mL | MIC90 [3]: 1 µg/mL (≈ 2.78 µM) | MIC Range [3]: ≤0.0625 to 1 µg/mL | MIC [4]: 1 µg/mL (≈ 2.78 µM) | MIC50 [5]: 0.25 µg/mL (≈ 0.696 µM) | MIC90 [5]: 4 µg/mL (≈ 11.1 µM) | MIC [5]: 0.0625 to 8 µg/mL (≈ 0.174 to 22.3 µM) | MIC50 [6]: 2 µg/mL (≈ 5.56 µM) | MIC90 [6]: 4 µg/mL (≈ 11.1 µM) | MIC [6]: 0.0625 to 8 µg/mL (≈ 0.174 to 22.3 µM) | MIC [7]: > 32 µg/mL | MIC [8]: > 32 µg/mL | MIC [9]: 0.25 µg/mL (≈ 0.696 µM) | MIC [10]: 2 µg/mL (≈ 5.56 µM) | MIC [11]: 8 µg/mL (≈ 22.3 µM) | MIC [12]: > 32 µg/mL | MIC50 [13]: 2 µg/mL (≈ 5.56 µM) | MIC90 [13]: 32 µg/mL (≈ 89 µM) | MIC [14]: ≤ 0.0625 µg/mL | MIC Range [15]: ≤0.0625 to 2 µg/mL | MIC50 [15]: 0.5 µg/mL (≈ 1.39 µM) | MIC90 [15]: 0.5 µg/mL (≈ 1.39 µM) | MIC50 [16]: ≤ 0.0625 µg/mL | MIC90 [16]: 0.5 µg/mL (≈ 1.39 µM) | MIC [16]: 0.0625 to 8 µg/mL (≈ 0.174 to 22.3 µM)

COc1c(N2CCNC(C)C2)c(F)cc2c(=O)c(C(=O)O)cn(C3CC3)c12 (centres unmarked) [GAFX, gatifloxacin]
CLSI %R (resistant) [1, 18]: 50.0% | CLSI %S (susceptible) [1, 18]: 30.0% | MIC50 [1]: 1 µg/mL (≈ 2.66 µM) | MIC90 [1]: 2 µg/mL (≈ 5.33 µM) | MIC [1]: 0.125 to 2 µg/mL (≈ 0.333 to 5.33 µM) | CLSI %R (resistant) [2, 19]: 92.3% | CLSI %S (susceptible) [2, 19]: 7.7% | MIC Range [2, 17]: 4 to 32 µg/mL | MIC50 [2, 17]: 4 µg/mL (≈ 10.7 µM) | MIC90 [2, 17]: 32 µg/mL (≈ 85.2 µM) | MIC50 [3]: ≤ 0.0625 µg/mL | MIC90 [3]: 1 µg/mL (≈ 2.66 µM) | MIC Range [3]: ≤0.0625 to 1 µg/mL | MIC [4]: 0.5 µg/mL (≈ 1.33 µM) | MIC50 [5]: ≤ 0.0625 µg/mL | MIC90 [5]: 4 µg/mL (≈ 10.7 µM) | MIC [5]: 0.0625 to 4 µg/mL (≈ 0.166 to 10.7 µM) | CLSI %R (resistant) [6, 20]: 42.4% | CLSI %S (susceptible) [6, 20]: 45.5% | MIC50 [6]: 1 µg/mL (≈ 2.66 µM) | MIC90 [6]: 2 µg/mL (≈ 5.33 µM) | MIC [6]: 0.0625 to 2 µg/mL (≈ 0.166 to 5.33 µM) | MIC [7]: > 32 µg/mL | MIC [8]: 8 µg/mL (≈ 21.3 µM) | MIC [9]: 0.125 µg/mL (≈ 0.333 µM) | MIC [10]: 2 µg/mL (≈ 5.33 µM) | MIC [11]: 2 µg/mL (≈ 5.33 µM) | MIC [12]: 16 µg/mL (≈ 42.6 µM) | CLSI %R (resistant) [13, 21]: 13.8% | CLSI %S (susceptible) [13, 21]: 86.2% | MIC Range [13]: 0.25 to 8 µg/mL | MIC50 [13]: 1 µg/mL (≈ 2.66 µM) | MIC90 [13]: 8 µg/mL (≈ 21.3 µM) | MIC [14]: ≤ 0.0625 µg/mL | CLSI %S (susceptible) ([15]; E. faecalis clinical isolates, CLSI criteria): 94.6/- % | MIC Range [15]: 0.125 to 2 µg/mL | MIC50 [15]: 0.25 µg/mL (≈ 0.666 µM) | MIC90 [15]: 0.5 µg/mL (≈ 1.33 µM) | CLSI %R (resistant) [16, 22]: 3.8% | CLSI %S (susceptible) [16, 22]: 96.2% | MIC50 [16]: 0.125 µg/mL (≈ 0.333 µM) | MIC90 [16]: 0.25 µg/mL (≈ 0.666 µM) | MIC [16]: 0.0625 to 2 µg/mL (≈ 0.166 to 5.33 µM)
